Assay results taken from ChEMBL document CHEMBL4813982, “Novel pyrazolo[4,3-d]pyrimidine microtubule targeting agents (MTAs): Synthesis, structure-activity relationship, in vitro and in vivo evaluation as antitumor agents” (Bioorg Med Chem Lett, 2021).
pIC50: −log10 of the molar value.

Key:
Tubulin (Homo sapiens) = Tubulin (Homo sapiens) (UniProt P68371+Q9H4B7+P0DPH7+P68366+Q13509+Q71U36+P04350+Q3ZCM7+P07437+P68363+Q9BQE3+Q6PEY2+Q13885+Q9BVA1+Q9BUF5); test: Inhibition of [3H]colchicine binding to tubulin (unknown origin) at 5 uM relative to control; type: protein-complex assay
Tubulin = test: Inhibition of tubulin assembly (unknown origin); type: protein-complex assay, Homo sapiens

For `COc1ccc(N(C)c2nc(C)nc3cc[nH]c23)cc1`, the inhibition (Tubulin (Homo sapiens)) was 60% and the pIC50 (Tubulin) was 5.00.
